Assay results published in patent US9453051B2, “Cyclosporin derivatives” (priority 2011, dated 2016).

What was measured:
[1] = target: recombinant human wild type Cyp18 (Cyp18 wt) (Homo sapiens, UniProt P62937); assay: biochemical
[2] = system: NFAT; assay: Cellular NFAT-reporter-gene assay (GloResponse NFAT-RE-luc2P HEK293); assay type: cell-based; settings: Homo sapiens, HEK293, 16 h, read-out: NFAT-reporter-gene assay IC50
From the text: An antigen specific stimulation of the T-cell receptor causes the activation of transcription factors such as e.g. NFAT (nuclear factor of activated T cells). NFAT-activation is essential for the expression of interleukine-2 and therefore, for the proliferation of T-cells as part of the immune response. A stable NFAT-reporter-gene cell line enables the analysis of modulators of the NFAT-pathways and thus, the evaluation of the immunosuppressive effects of compounds.
The stably transfected reporter-gene cell line GloResponse NFAT-RE-luc2P HEK293 (promega Corp. USA) was cultivated in DMEM (10% FCS; 2 mM Glutamin; 200 μg/ml Hygromycin) and seeded on 96-well plates (200.000 cells/well). The compounds to be tested were either added to the cells in a 2-point-determination (5 μM and 10 μM) or an ICH-determination (concentration series 4.1 nM-1 μM). […] Immediately thereafter the cells were stimulated with 5 nM PMA and 2 μM ionomycin and incubated over 16 h (37° C.; cell incubator). This double stimulation simulates a T-cell receptor stimulation and causes a NFAT activation with subsequently expression of the luciferase-reporter-gene. The amount of luciferase was quantitatively determined after 16 h by measurement of the bioluminescence by Bright-Glo Luciferase-Assay-System (Promega Corp., USA). The averaged luciferase values of the vehicle treated (1% DMSO) and with PMA/ionomycin stimulated cells were used as positive control and reference value.

[3] = target: calcineurin (Homo sapiens, UniProt P62937+P63098+Q08209); assay: Inhibition of the phosphatase activity of calcineurin (scintillation-proximity-assay, in presence of Cyp18);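 note: calcineurin dephosphorylation of a ³³P-labelled RII phosphopeptide, captured on streptavidin-coated wells and read by scintillation counting, with uninhibited enzyme activity taken as 100%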
Description: The measurement was carried out by incubation of 10 μMol of the biotinylated phosphopeptide [sequence]pSer-Val-Ala-Ala-Glu (MW=2192.0) (RH-peptide) marked with ^33P in a sample buffer (40 mM Tris-HCl, pH 7.5, 100 mM NaCl, 6 mM MgCl2, 0.5 mM dithiothreitol, 1 mM. CaCl2, 0.1 mg/ml bovine serum albumin) in presence of 50 nM calmodulin and 1.32 nM calcineurin at 30° C. for 20 min in a 96 well micro titer plate (Costar, Bodenheim, Germany). The total volume of the assay/well was 100 μl. After this reaction time a 90 μl aliquot of the reaction mixture was transferred into a scintillation cavity coated with streptavidin and incubated for 20 min at 22° C. After a washing step the RII phosphopeptide-associated ^33P radioactivity was measured in a MicroBeta Top Counter (Wallac) and the enzyme activity was indicated as average value of three measurements±S.D. The uninhibited dephosphorylation activity has been set on 100%.

Chain of recombinant human wild type Cyp18 (Cyp18 wt) (P62937 whole entry): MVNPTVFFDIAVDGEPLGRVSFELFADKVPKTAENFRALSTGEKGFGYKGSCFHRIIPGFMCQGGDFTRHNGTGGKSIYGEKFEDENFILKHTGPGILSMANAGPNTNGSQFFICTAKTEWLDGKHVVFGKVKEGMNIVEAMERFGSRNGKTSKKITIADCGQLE

SMILES	IC50 [1] [µM]	IC50 [2] [µM]	IC50 [3] [µM]
CC[C@@H]1NC(=O)[C@H]([C@H](O)[C@H](C)Cc2nc3cc(N)c(N)cc3[nH]2)N(C)C(=O)[C@H](C(C)C)N(C)C(=O)[C@H](CC(C)C)N(C)C(=O)[C@H](CC(C)C)N(C)C(=O)[C@@H](C)NC(=O)[C@H](C)NC(=O)[C@H](CC(C)C)N(C)C(=O)[C@H](C(C)C)NC(=O)[C@H](CC(C)C)N(C)C(=O)CN(C)C1=O [Compound 40]	0.0055	> 10	8
CC[C@@H]1NC(=O)[C@H]([C@H](O)[C@H](C)Cc2nc3cc(NC(=O)C(F)(F)F)ccc3[nH]2)N(C)C(=O)[C@H](C(C)C)N(C)C(=O)[C@H](CC(C)C)N(C)C(=O)[C@H](CC(C)C)N(C)C(=O)[C@@H](C)NC(=O)[C@H](C)NC(=O)[C@H](CC(C)C)N(C)C(=O)[C@H](C(C)C)NC(=O)[C@H](CC(C)C)N(C)C(=O)CN(C)C1=O [Compound 38]	0.0143	3.8	3.34
CC[C@@H]1NC(=O)[C@H]([C@H](O)[C@H](C)Cc2nc3cc(N4CCN(C)CC4)ccc3[nH]2)N(C)C(=O)[C@H](C(C)C)N(C)C(=O)[C@H](CC(C)C)N(C)C(=O)[C@H](CC(C)C)N(C)C(=O)[C@@H](C)NC(=O)[C@H](C)NC(=O)[C@H](CC(C)C)N(C)C(=O)[C@H](C(C)C)NC(=O)[C@H](CC(C)C)N(C)C(=O)CN(C)C1=O [Compound 41]	0.003	> 10	> 10
CC[C@@H]1NC(=O)[C@H]([C@H](O)[C@H](C)Cc2nc3cc(C(=O)OC)c(C(=O)OC)cc3[nH]2)N(C)C(=O)[C@H](C(C)C)N(C)C(=O)[C@H](CC(C)C)N(C)C(=O)[C@H](CC(C)C)N(C)C(=O)[C@@H](C)NC(=O)[C@H](C)NC(=O)[C@H](CC(C)C)N(C)C(=O)[C@H](C(C)C)NC(=O)[C@H](CC(C)C)N(C)C(=O)CN(C)C1=O [Compound 32]	0.0249	> 10	> 10
CC[C@@H]1NC(=O)[C@H]([C@H](O)[C@H](C)Cc2nc3cc(F)cc(C(=O)O)c3[nH]2)N(C)C(=O)[C@H](C(C)C)N(C)C(=O)[C@H](CC(C)C)N(C)C(=O)[C@H](CC(C)C)N(C)C(=O)[C@@H](C)NC(=O)[C@H](C)NC(=O)[C@H](CC(C)C)N(C)C(=O)[C@H](C(C)C)NC(=O)[C@H](CC(C)C)N(C)C(=O)CN(C)C1=O [Compound 21]	0.0222	5.3	> 10
CC[C@@H]1NC(=O)[C@H]([C@H](O)[C@H](C)Cc2nc3cc(/C=C/C(=O)O)ccc3[nH]2)N(C)C(=O)[C@H](C(C)C)N(C)C(=O)[C@H](CC(C)C)N(C)C(=O)[C@H](CC(C)C)N(C)C(=O)[C@@H](C)NC(=O)[C@H](C)NC(=O)[C@H](CC(C)C)N(C)C(=O)[C@H](C(C)C)NC(=O)[C@H](CC(C)C)N(C)C(=O)CN(C)C1=O [Compound 15]	0.0048	> 10	> 10
CC[C@@H]1NC(=O)[C@H]([C@H](O)[C@H](C)Cc2nc3cc(C(=O)OCCN4CCOCC4)ccc3[nH]2)N(C)C(=O)[C@H](C(C)C)N(C)C(=O)[C@H](CC(C)C)N(C)C(=O)[C@H](CC(C)C)N(C)C(=O)[C@@H](C)NC(=O)[C@H](C)NC(=O)[C@H](CC(C)C)N(C)C(=O)[C@H](C(C)C)NC(=O)[C@H](CC(C)C)N(C)C(=O)CN(C)C1=O [Compound 27]	0.0059	7.4	6.4
CC[C@@H]1NC(=O)[C@H]([C@H](O)[C@H](C)Cc2nc3nc(O)nc(O)c3[nH]2)N(C)C(=O)[C@H](C(C)C)N(C)C(=O)[C@H](CC(C)C)N(C)C(=O)[C@H](CC(C)C)N(C)C(=O)[C@@H](C)NC(=O)[C@H](C)NC(=O)[C@H](CC(C)C)N(C)C(=O)[C@H](C(C)C)NC(=O)[C@H](CC(C)C)N(C)C(=O)CN(C)C1=O [Compound 24]	0.0062	> 10	> 10
CC[C@@H]1NC(=O)[C@H]([C@H](O)[C@H](C)Cc2nc3cccc(C(=O)OC)c3[nH]2)N(C)C(=O)[C@H](C(C)C)N(C)C(=O)[C@H](CC(C)C)N(C)C(=O)[C@H](CC(C)C)N(C)C(=O)[C@@H](C)NC(=O)[C@H](C)NC(=O)[C@H](CC(C)C)N(C)C(=O)[C@H](C(C)C)NC(=O)[C@H](CC(C)C)N(C)C(=O)CN(C)C1=O [Compound 29]	0.0295	10	> 10
CC[C@@H]1NC(=O)[C@H]([C@H](O)[C@H](C)Cc2nc3cc(C(=O)NC(CCC(=O)O)C(=O)NC(CCC(=O)O)C(=O)O)ccc3[nH]2)N(C)C(=O)[C@H](C(C)C)N(C)C(=O)[C@H](CC(C)C)N(C)C(=O)[C@H](CC(C)C)N(C)C(=O)[C@@H](C)NC(=O)[C@H](C)NC(=O)[C@H](CC(C)C)N(C)C(=O)[C@H](C(C)C)NC(=O)[C@H](CC(C)C)N(C)C(=O)CN(C)C1=O (stereo partly drawn) [Compound 13]	0.0111	> 10	> 10
CC[C@@H]1NC(=O)[C@H]([C@H](O)[C@H](C)Cc2nc3cc(C(=O)OCCN(C)C)ccc3[nH]2)N(C)C(=O)[C@H](C(C)C)N(C)C(=O)[C@H](CC(C)C)N(C)C(=O)[C@H](CC(C)C)N(C)C(=O)[C@@H](C)NC(=O)[C@H](C)NC(=O)[C@H](CC(C)C)N(C)C(=O)[C@H](C(C)C)NC(=O)[C@H](CC(C)C)N(C)C(=O)CN(C)C1=O [Compound 26]	0.0108	> 10	6.2
CC[C@@H]1NC(=O)[C@H]([C@H](O)[C@H](C)Cc2nc3cc(C(=O)NN)ccc3[nH]2)N(C)C(=O)[C@H](C(C)C)N(C)C(=O)[C@H](CC(C)C)N(C)C(=O)[C@H](CC(C)C)N(C)C(=O)[C@@H](C)NC(=O)[C@H](C)NC(=O)[C@H](CC(C)C)N(C)C(=O)[C@H](C(C)C)NC(=O)[C@H](CC(C)C)N(C)C(=O)CN(C)C1=O [Compound 19]	0.0054	> 10	7
CC[C@@H]1NC(=O)[C@H]([C@H](O)[C@H](C)Cc2nc3cc(NS(=O)(=O)C(F)(F)F)ccc3[nH]2)N(C)C(=O)[C@H](C(C)C)N(C)C(=O)[C@H](CC(C)C)N(C)C(=O)[C@H](CC(C)C)N(C)C(=O)[C@@H](C)NC(=O)[C@H](C)NC(=O)[C@H](CC(C)C)N(C)C(=O)[C@H](C(C)C)NC(=O)[C@H](CC(C)C)N(C)C(=O)CN(C)C1=O [Compound 47]	0.0132	> 10	> 10
CCOC(=O)c1ccc2[nH]c(C[C@@H](C)[C@@H](O)[C@H]3C(=O)N[C@@H](CC)C(=O)N(C)CC(=O)N(C)[C@@H](CC(C)C)C(=O)N[C@@H](C(C)C)C(=O)N(C)[C@@H](CC(C)C)C(=O)N[C@@H](C)C(=O)N[C@H](C)C(=O)N(C)[C@@H](CC(C)C)C(=O)N(C)[C@@H](CC(C)C)C(=O)N(C)[C@@H](C(C)C)C(=O)N3C)nc2c1 [Compound 9]	0.0139	> 10	7
CCC(CC)COC(=O)c1ccc2[nH]c(C[C@@H](C)[C@@H](O)[C@H]3C(=O)N[C@@H](CC)C(=O)N(C)CC(=O)N(C)[C@@H](CC(C)C)C(=O)N[C@@H](C(C)C)C(=O)N(C)[C@@H](CC(C)C)C(=O)N[C@@H](C)C(=O)N[C@H](C)C(=O)N(C)[C@@H](CC(C)C)C(=O)N(C)[C@@H](CC(C)C)C(=O)N(C)[C@@H](C(C)C)C(=O)N3C)nc2c1 [Compound 10]	0.0115	> 10	6.9
CC[C@@H]1NC(=O)[C@H]([C@H](O)[C@H](C)Cc2nc3c(F)c(F)cc(S(=O)(=O)O)c3[nH]2)N(C)C(=O)[C@H](C(C)C)N(C)C(=O)[C@H](CC(C)C)N(C)C(=O)[C@H](CC(C)C)N(C)C(=O)[C@@H](C)NC(=O)[C@H](C)NC(=O)[C@H](CC(C)C)N(C)C(=O)[C@H](C(C)C)NC(=O)[C@H](CC(C)C)N(C)C(=O)CN(C)C1=O [Compound 20]	0.0067	> 10	> 10
